Type in all cases: biochemical
For one assay, the system named is MCL-1. In words: In vitro transcription-translation (IVTT) assay, MCL-1 reporter. Particulars: IVTT, HeLa S3 lysate, 2 hrs at 30° C.; read-out: MCL1 IC50. The procedure, abridged:
(§1)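 Reporter: mCherry, P2A, then 3×FLAG-target peptide-sfGFP fusion, IRES-initiated; HeLa S3 lysate IVTT; cpd dilutions 30 μM−0.1 μM half-log in 100% DMSO (dilution-plate conc); DNA added last; 2 h, 30° C; PBS quench.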

For another assay, the system named is CCNTB1. The experiment in a line: In vitro transcription-translation (IVTT) assay, CCNTB1 reporter. Particulars: HeLa S3 lysate, 2 hrs at 30° C. The gist of the method:
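HeLa S3 lysate-based coupled transcription-translation reactions with reporter plasmids, compounds in half-log dilutions (30 μM−0.1 μM, in DMSO), 2 h at 30° C. sfGFP/mCherry ratio, corrected for no-DNA background, normalized to no-drug control and fitted for IC50.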

The subject of another assay is CCNE1. The experiment in a line: In vitro transcription-translation (IVTT) assay, CCNE1 reporter. Particulars: HeLa S3 lysate, 2 hrs at 30° C. The procedure:
Each preparation takes 8 cell pellets (4 ml packed volume each, approximately 1.0×10^9 cells per pellet). Thaw cell pellets from −80° C. on ice for 90 mins. Lay pellets horizontally on top of the ice and rotate every 30 mins to ensure even thawing. Once thawed, add 4 mL of cold lysis buffer to each pellet, and using a serological pipet, gently pipet up and down to break up clumps. Incubate resuspended cells in ice for an additional 30 mins (plunged into ice). During 30 min incubation, rinse and RNase-zap (Ambion) glass dounces (use loose pestle “A”), gently dry and place on ice until needed. Prepare RNase-free Eppendorf tubes for spinning and for batch storage. Add batch labels to 1.5-1.7 mL RNase-free microcentrifuge tubes (labeling scheme below). Each batch will have an extra 1.5-1.7 mL RNase-free microcentrifuge tube for 40 μL of lysate, label the top of this tube (labeling scheme below). After 30 min incubation, transfer all 8 mL of cell pellet to dounce. Cell lysis is complete after douncing 100 times. Aliquot cell lysis into 1.5-1.7 mL temporary-microcentrifuge tubes. Place tubes in centrifuge with “fins” out, and spin at 1,200×g for 5 mins. After the first spin use a 1 mL pipet to resuspend each tube and repeat spin. This acts as an additional lysis step, is more vigorous and increases lysate yield. During second spin get liquid N2 and a fresh conical tube on ice. After spin is complete, transfer supernatant (lysate) from microcentrifuge tubes into the 50 mL conical tube and keep on ice. Repeat steps 10-14 for all other cell pellets until completed. Once all cell lysate has been transferred to the 50 mL conical tube pipet to mix so the solution is homogenous. Transfer 1 mL of lysate into batch-labeled microcentrifuge tubes and flash freeze in liquid nitrogen. Be sure to pipet up and down to mix throughout transfer step. Place all tubes in the […] for long-term storage.
In vitro transcription-translation assay setup: Each assay includes a master mix containing lysate and shared components, a 96-well plate containing compound titrations for testing, a 96-well DNA plate with reporter constructs to be tested, 96-well skirted PCR plates, and 96-well flat-bottom, black, fluorescent assay plates. Reaction materials setup: (A) Master mix—15 mL conical tube (3 mL of HeLa S3 Lysate described above; 0.6 mL of ThermoFisher Accessory Proteins (#88882); 1.2 ml of ThermoFisher Reaction Mix (#88882); 0.54 mL of nuclease-free Water); (B) 96-Well Master Mix+Compound Plate (Half-log dilutions (30 μM−0.1 μM) of 4 compounds of interest are prepared in 100% DMSO); 96-Well DNA Plate (Five DNA constructs are plated into single columns within the plate. Row 1 of the column contains nuclease free H2O, all other wells contain 110 ng/μL plasmid DNA). Reactions are started by mixing 155 μL of master mix and 3.5 μL of compound serial dilutions, then 9.1 μL of master mix+compound mixture is aliquoted across 5 96-well plates. Reactions begin with final addition of 2 μL of DNA for a 11.1 μL reaction volume in each well. The entire plate is sealed, and incubated for 2 hrs at 30° C. After 2 hrs, quench the assay using 45 μL of PBS, and transfer 50 μL to a flat-bottom black microplate Quantify the sfGFP and mCherry signals from each well on each plate, taking 3 reads of each plate, and perform data analysis below.
In vitro transcription-translation assay data analysis: Each plate is read three times in channels for both sfGFP and mCherry signals. The average signal across these 3 reads is then calculated for further analysis. Control wells containing no DNA reporter are subtracted from reporter wells in the same column to remove auto-fluorescence of the lysate. Then, the ratio of sfGFP/mCherry is calculated per well, and these ratios are averaged across the triplicate experiments on the same plate. Finally, the ratio of each titration concentration is normalized to the no drug control to create the normalized stalling metric. […]

Another assay concerns CCND1. In words: In vitro transcription-translation (IVTT) assay, CCND1 reporter. Particulars: IVTT, HeLa S3 lysate, 2 hrs at 30° C. The gist of the method: as §1
The subject of another assay is MYC. The experiment in a line: In vitro transcription-translation (IVTT) assay, MYC reporter. Particulars: IVTT assay, HeLa S3 lysate, MYC reporter, normalized sfGFP/mCherry ratio; half-log dilutions 30 μM-0.1 μM, 2 hrs at 30° C. The procedure, abridged: as §1

Where only a bound is given, the exact number is not on record here.

For `O=C(NC[C@H]1CCOC1)O[C@@H]1[C@@H](O)CN[C@@H]1Cc1ccc(Cl)cc1` [V188287, (2R,3S,4S)-2-[(4-chlorophenyl)methyl]-4-hydroxypyrrolidin-3-yl N-[(3R)-oxolan-3-ylmethyl]carbamate], the IC50 in the assay on MCL-1, in the assay with CCNTB1, in the assay on CCNE1, with CCND1 and in the assay on MYC was below 10 µM in each case.

As to `COc1ccc(C[C@H]2NC[C@H](O)[C@H]2OC(=O)NCc2ccnc(N3CCC3)c2)cc1` [V188225, (2R,3S,4S)-4-hydroxy-2-[(4-methoxyphenyl)methyl]pyrrolidin-3-yl N-{[2-(azetidin-1-yl)pyridin-4-yl]methyl}carbamate], the concentration for half-maximal inhibition (IC50) in the assay with MCL-1, with CCNTB1, in the assay with CCNE1, in the assay on CCND1 and with MYC was below 10 µM in each case.

In the case of `O=C(NCc1cnoc1)O[C@@H]1[C@@H](O)CN[C@@H]1Cc1ccc(Cl)cc1` [V188289, (2R,3S,4S)-2-[(4-chlorophenyl)methyl]-4-hydroxypyrrolidin-3-yl N-(1,2-oxazol-4-ylmethyl)carbamate], the IC50 with MCL-1, with CCNTB1, with CCNE1, with CCND1 and in the assay with MYC was below 10 µM throughout.

Consider `COc1ccc(C[C@H]2NC[C@H](O)[C@H]2OC(=O)NC[C@H]2CCN(c3nccs3)C2)cc1` [V188170, (2R,3S,4S)-4-hydroxy-2-[(4-methoxyphenyl)methyl]pyrrolidin-3-yl N-{[(3R)-1-(1,3-thiazol-2-yl)pyrrolidin-3-yl]methyl}carbamate], for which the half-maximal inhibitory concentration (IC50) is below 10 µM in the assay on CCNTB1, below 10 µM with CCNE1, below 10 µM with CCND1 and 10 to 20 µM in the assay on MYC.

Regarding `COc1ccc(C[C@H]2NC[C@H](O)[C@H]2OC(=O)NCc2ccc3[nH]cnc3c2)cc1` [V188150, (2R,3S,4S)-4-hydroxy-2-[(4-methoxyphenyl)methyl]pyrrolidin-3-yl N-(JH-1,3-benzodiazol-5-ylmethyl)carbamate], the IC50 in the assay on CCNTB1, with CCNE1, with CCND1 and with MYC was below 10 µM throughout.

Regarding `COc1ccc(C[C@H]2NC[C@H](O)[C@H]2OC(=O)NCCO[C@@H]2CCNC2)cc1` [V188071, (2R,3S,4S)-4-hydroxy-2-[(4-methoxyphenyl)methyl]pyrrolidin-3-yl N-{2-[(3R)-pyrrolidin-3-yloxy]ethyl}carbamate], the half-maximal inhibitory concentration (IC50) is below 10 µM with CCNTB1, below 10 µM in the assay with CCNE1, 10 to 20 µM in the assay with CCND1 and 10 to 20 µM in the assay with MYC.

For `COc1ccc(C[C@H]2NC[C@H](O)[C@H]2OC(=O)NC[C@@H]2[C@@H]3CNC[C@@H]32)cc1` [V188161, (2R,3S,4S)-4-hydroxy-2-[(4-methoxyphenyl)methyl]pyrrolidin-3-yl N-[(1R,5S,6S)-3-azabicyclo[3.1.0]hexan-6-ylmethyl]carbamate], the IC50 with CCNTB1 is below 10 µM; in the assay with CCNE1 it was 10 to 20 µM; in the assay on CCND1 it was above 30 µM; with MYC, above 30 µM.

In the case of `O=C(NCc1ccccc1)O[C@@H]1[C@@H](O)CN[C@@H]1Cc1ccc(Cl)cc1` [V188203, (2R,3S,4S)-2-[(4-chlorophenyl)methyl]-4-hydroxypyrrolidin-3-yl N-benzylcarbamate], the IC50 in the assay on CCNTB1 was below 10 µM; in the assay on CCNE1 it was below 10 µM; with CCND1, 10 to 20 µM; with MYC, 10 to 20 µM.

In the case of `O=C(NCc1ccc(Cl)cc1)O[C@@H]1[C@@H](O)CN[C@@H]1Cc1ccc(Cl)cc1` [V188273, (2R,3S,4S)-2-[(4-chlorophenyl)methyl]-4-hydroxypyrrolidin-3-yl N-[(4-chlorophenyl)methyl]carbamate], the IC50 in the assay on CCNTB1 was 10 to 20 µM; in the assay with CCNE1, 20 to 30 µM; in the assay on CCND1 it was above 30 µM; with MYC, above 30 µM.

As to `COc1ccc(C[C@H]2NC[C@H](O)[C@H]2OC(=O)NCc2ccc(=O)[nH]c2)cc1` [V188206, (2R,3S,4S)-4-hydroxy-2-[(4-methoxyphenyl)methyl]pyrrolidin-3-yl N-[(6-oxo-1H-pyridin-3-yl)methyl]carbamate], the IC50 with CCNTB1, in the assay with CCNE1, with CCND1 and in the assay with MYC was below 10 µM in each case.

`COc1ccc(C[C@H]2NC[C@H](O)[C@H]2OC(=O)NCCn2cc[nH]c2=O)cc1` [V188088, (2R,3S,4S)-4-hydroxy-2-[(4-methoxyphenyl)methyl]pyrrolidin-3-yl N-[2-(2-oxo-3H-imidazol-1-yl)ethyl]carbamate]: the concentration for half-maximal inhibition (IC50) in the assay with CCNTB1 was below 10 µM; with CCNE1 it was 10 to 20 µM; in the assay with CCND1 it was above 30 µM; in the assay on MYC, 20 to 30 µM.

As for `CNC(=O)c1ccc(CNC(=O)O[C@@H]2[C@@H](O)CN[C@@H]2Cc2ccc(OC)cc2)cc1` [V188305, (2R,3S,4S)-4-hydroxy-2-[(4-methoxyphenyl)methyl]pyrrolidin-3-yl N-{[4-(methylcarbamoyl)phenyl]methyl}carbamate], the IC50 in the assay on CCNTB1, in the assay on CCNE1, in the assay with CCND1 and in the assay on MYC was below 10 µM each time.

As for `O=C(NCC1(F)CC1)O[C@@H]1[C@@H](O)CN[C@@H]1Cc1ccc(Cl)cc1` [V188269, (2R,3S,4S)-2-[(4-chlorophenyl)methyl]-4-hydroxypyrrolidin-3-yl N-[(1-fluorocyclopropyl)methyl]carbamate], the IC50 is below 10 µM in the assay on CCNTB1, 10 to 20 µM in the assay with CCNE1, above 30 µM in the assay on CCND1 and above 30 µM with MYC.

Take `COc1ccc(C[C@H]2NC[C@H](O)[C@H]2OC(=O)NCC2CCNCC2)cc1` [V188172, (2R,3S,4S)-4-hydroxy-2-[(4-methoxyphenyl)methyl]pyrrolidin-3-yl N-(piperidin-4-ylmethyl)carbamate]: the IC50 in the assay on CCNTB1, in the assay with CCNE1, in the assay with CCND1 and in the assay with MYC was above 30 µM in each case.

With `O=C(NC[C@@H]1CCOC1)O[C@@H]1[C@@H](O)CN[C@@H]1Cc1ccc(Cl)cc1` [V188288, (2R,3S,4S)-2-[(4-chlorophenyl)methyl]-4-hydroxypyrrolidin-3-yl N-[(3S)-oxolan-3-ylmethyl]carbamate], the IC50 is below 10 µM with CCNTB1, below 10 µM in the assay with CCNE1, 20 to 30 µM in the assay with CCND1 and 10 to 20 µM in the assay with MYC.

For the molecule `COc1ccc(C[C@H]2NC[C@H](O)[C@H]2OC(=O)NC[C@H]2CCN(C)C2)cc1` [V188108, (2R,3S,4S)-4-hydroxy-2-[(4-methoxyphenyl)methyl]pyrrolidin-3-yl N-{[(3R)-1-methylpyrrolidin-3-yl]methyl}carbamate], the IC50 with CCNTB1 was 20 to 30 µM; with CCNE1, above 30 µM; with CCND1 it was above 30 µM; with MYC, above 30 µM.

What is called IC50 is the concentration needed to halve the response being measured.

These data come from patent US20250129021A1, “SMALL MOLECULE PROTEIN SYNTHESIS MODULATORS” (Interdict Bio, Inc., priority 2023, published 2025).
